pIC50: −log10 of the molar value.
Experiments:
Aurora kinase A = biological target: T1, Aurora kinase A (Homo sapiens, UniProt O14965); experiment: Inhibition of human recombinant His-tagged Aurora A kinase expressed in insect cells; details: for pIC50: read-out: IC50
T1 sequence (O14965 whole entry): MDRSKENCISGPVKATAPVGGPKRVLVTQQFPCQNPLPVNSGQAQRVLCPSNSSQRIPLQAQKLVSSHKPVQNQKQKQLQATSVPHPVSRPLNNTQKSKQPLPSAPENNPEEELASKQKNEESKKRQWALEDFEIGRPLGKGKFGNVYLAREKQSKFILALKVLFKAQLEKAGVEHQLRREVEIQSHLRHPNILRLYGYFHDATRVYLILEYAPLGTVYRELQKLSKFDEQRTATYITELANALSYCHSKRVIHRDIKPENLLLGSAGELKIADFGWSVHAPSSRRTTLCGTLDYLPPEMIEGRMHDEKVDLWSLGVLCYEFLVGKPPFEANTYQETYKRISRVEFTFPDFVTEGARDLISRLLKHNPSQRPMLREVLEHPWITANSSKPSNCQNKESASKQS

HT-29 [1] = experiment: Cytotoxicity against human HT-29 cells at 10 uM after 4 hrs by MTT assay; assay type: functional; details: HT-29, 4 h
DU-145 [2] = experiment: Cytotoxicity against human DU145 cells at 10 uM after 4 hrs by MTT assay; assay type: functional; details: DU-145, 4 h
DU-145 [3] = experiment: Cytotoxicity against human DU145 cells after 4 hrs by MTT assay; assay type: functional; details: DU-145, 4 h
HT-29 [4] = experiment: Cytotoxicity against human HT-29 cells after 4 hrs by MTT assay; assay type: functional; details: HT-29, 4 h

Compound	IC50 (Aurora kinase A)	inhibition at 10 µM (HT-29 [1]) [%]	inhibition at 10 µM (DU-145 [2]) [%]	GI50 (DU-145 [3]) [µM]	GI50 (HT-29 [4]) [µM]	pIC50 (Aurora kinase A)
COc1ccc(N(CC(=O)Nc2cc(Cl)ccc2C)S(=O)(=O)c2c(C)n[nH]c2C)cc1	Not Active	87	74	5.98	3.98	
CCOc1ccc2nc(NC3=NC(=O)CC(c4ccc(OC)cc4)N3)nc(C)c2c1 (stereo unspecified)	Not Active	85	84	4.26	7.08	
COc1ccc(-c2cc(C(=O)Nc3ccc(C)cc3C)c3c(-c4ccccc4)[nH]nc3n2)cc1OC		91	92	2.06	1.65	< 4.00
Cc1ccc(-c2nnc(Nc3ccc(Oc4ncccc4-c4c[nH]nc4N)cc3)c3ccccc23)cc1						7.22
Cc1ccc(Nc2cc(Nc3ccc(NS(=O)(=O)c4ccccc4F)cc3)nc(C)n2)cc1	Not Active	83	38	23.4	5.12	
CC(=O)Nc1cccc(NC(=O)C(=O)NCCc2sc(-c3ccc(Cl)cc3)nc2C)c1		54	32	> 100	16.5	< 4.00
COc1ccc2cc(C(=O)C3CCC(C(C)C(=O)NCCC4=CCCCC4)CC3)[nH]c2c1 (stereo unspecified)		68	49	15.9	9.36	4.06
COc1ccc(OCC(O)Cn2c(N/N=C/c3ccccc3O)nc3c2c(=O)[nH]c(=O)n3C)cc1 (stereo unspecified)		58	23	27.7	7.94	4.74
CCOc1ccc2nc(Nc3nc(O)c4ccccc4n3)nc(C)c2c1		89	80	36.9	29.1	4.78
Cc1ccc(NC(=O)C(Cc2ccc(O)cc2)NC(=O)c2ccccc2N)cc1 (stereo unspecified)		54	87	3.93	9.48	4.92
CCOc1ccc(NC(=O)Cn2c(Nc3ccc(OCC)cc3)nc3c2c(=O)[nH]c(=O)n3C)cc1		62	57	> 100	7.91	4.01
COc1ccc(C(=O)Nc2ccccc2C(=O)NC(Cc2ccc(O)cc2)C(=O)Nc2ccc(C)cc2C)cc1 (stereo unspecified)		73	90	2.73	5.23	5.29
COc1ccc2sc(SCC(=O)Nc3ncc(Br)s3)nc2c1		89	49	17	2.04	< 4.00
CCCOc1ccc(CNC(=O)c2[nH]c3cc(C)ccc3c2Sc2ccccc2)cc1	Not Active	64	34	26	5.36	
CCOc1ccc(NC(=S)N(CCN(CC)CC)Cc2cc3cc4c(cc3[nH]c2=O)OCCO4)cc1 [ASN03776845]	Not Active	78	49	14.1	6.33	
CCOc1ccc2cc(CNc3cc(OC)cc(OC)c3)c(=O)[nH]c2c1 [ASN07410292]	Not Active	88	80	5.81	3.64	
